This assay has as its system PAF-induced hypotension. Briefly: Inhibition of PAF-induced hypotension. The assay is classed as in vivo, rats of the Wistar-Imamichi strain. The conditions noted are these: Rattus norvegicus, iv; 50% inhibitory dose from dose-response curve for inhibition of PAF-induced hypotension; rats; read-out: Inhibition of Hypotension ID50. As for the experimental part:
The test animals employed were rats of the Wistar-Imamichi strain, each weighing between 350 and 450 g.
Under Inactin anesthesia (90 mg/kg administered intraperitoneally) the left femoral artery and vein of each test animal were cannulated to enable the arterial blood pressure to be monitored continuously and for drug administration, respectively. At intervals of about 5 minutes, each animal was given by intravenous injection 10 ng/kg of synthetic I-C16:0 PAF until a steady hypotensive response was achieved. At this time, the drug to be tested was administered by intravenous injection in doses increasing cumulatively by a factor of 4. Within I minute of this injection, a further 10 ng/kg of the IC16:0 PAF was administered. The hypotensive response to PAF was inhibited by the test drug in a dose-related manner.
The PAF was administered in the form of a solution in physiological saline containing 0.25% w/v bovine serum albumin. The test drugs were dissolved in physiological saline containing 20% v/v ethanol.
The 50% inhibitory dose (ID 50 ) was calculated from the dose-response curve constructed for the inhibition of PAF-induced hypotension.
This test was carried out using compounds of the invention, as well as the prior art compound CV-3988, disclosed in US Patent No. 4,408,052 and represented by the foregoing formula (B).

With `CCCCCCCCCCCCCCCCCCNC(=O)OCC(COP(=O)([O-])OCC[n+]1ccsc1)OC` (stereo not shown) [CV - 3988], the ED50 is 0.42 mg/kg.

(Values after patent EP0251827A2, “New cyclic ether derivatives, their preparation and their use” (Sankyo Company Limited, priority 1986, dated 1988).)
